Measurements reported in US12398154B2, “Azaquinazoline pan-KRas inhibitors” (Mirati Therapeutics, Inc., priority 2020, dated 2025).

Legend:
KRas G13D = target: T1, KRas G13D (Homo sapiens, UniProt P01116, G13D); test: KRas binding assay (TR-FRET displacement);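 note: One-hour room temperature incubation before TR-FRET reading, IC50 from a four-parameter curve fit to percent-of-control data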
T1 construct: Biotinylated KRas (corresponding to amino acids 1-169, produced at Accelegan Inc.); biotin (biotinylated); purchased Accelegan Inc
Method: (§1) The ability of a compound to bind to KRas was measured using a TR-FRET displacement assay. […] After a 60-minute incubation at room temperature, the reaction was measured using a BMG LABTECH CLARIO star Plus via TR-FRET. […] The POC values were fit to a 4-parameter IC50 equation and the IC50 value reported.

KRas Q61H = target: T2, KRas Q61H (Homo sapiens, UniProt P01116, Q61H); test: KRas binding assay (TR-FRET displacement);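 note: TR-FRET signal read after one hour at room temperature, IC50 derived by four-parameter fitting of percent-of-control values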
T2 construct: Biotinylated KRas (corresponding to amino acids 1-169, produced at Accelegan Inc.); biotin (biotinylated); purchased Accelegan Inc
Method: as §1

KRas G12D = KRas G12D (Homo sapiens, UniProt P01116, G12D); test: biochemical;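 note: TR-FRET displacement binding assay on KRas, read after a one-hour incubation at room temperature, IC50 fitted from percent-of-control values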
Method: as §1

KRas G12R = KRas G12R (Homo sapiens, UniProt P01116, G12R); test: biochemical;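 note: TR-FRET displacement assay of compound binding to KRas, read after one hour at room temperature, potency from a four-parameter fit of percent-of-control values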
Method: as §1

KRas WT = KRas WT (Homo sapiens, UniProt P01116); test: biochemical;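 note: binding to KRas read as TR-FRET displacement after a one-hour room-temperature incubation, IC50 derived from percent-of-control values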
Method: as §1

KRas G12C = KRas G12C (Homo sapiens, UniProt P01116, G12C); test: biochemical;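 note: binding to KRas assessed by TR-FRET displacement after one hour incubation at room temperature, potency fitted from percent-of-control values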
Method: as §1

KRas G12A = KRas G12A (Homo sapiens, UniProt P01116, G12A); test: biochemical;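 note: binding to KRas measured by TR-FRET displacement after one hour at room temperature, IC50 from a four-parameter fit of percent-of-control values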
Method: as §1

KRas G12V = KRas G12V (Homo sapiens, UniProt P01116, G12V); test: biochemical;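 note: KRas binding measured by TR-FRET displacement at room temperature, IC50 fitted from percent of control values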
Method: as §1

KRas G12S = KRas G12S (Homo sapiens, UniProt P01116, G12S); test: biochemical;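 note: TR-FRET displacement binding to KRas, read after one hour incubation at room temperature, IC50 from four-parameter fit of percent of control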
Chain of KRas G12S (P01116 1-169 isoform P01116-2 G12S): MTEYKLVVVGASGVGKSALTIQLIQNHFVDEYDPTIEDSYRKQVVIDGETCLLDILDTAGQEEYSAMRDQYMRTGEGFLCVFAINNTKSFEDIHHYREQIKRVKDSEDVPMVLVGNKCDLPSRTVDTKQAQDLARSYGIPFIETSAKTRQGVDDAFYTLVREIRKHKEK
Method: as §1

Chain of KRas G12V (P01116 1-169 isoform P01116-2 G12V): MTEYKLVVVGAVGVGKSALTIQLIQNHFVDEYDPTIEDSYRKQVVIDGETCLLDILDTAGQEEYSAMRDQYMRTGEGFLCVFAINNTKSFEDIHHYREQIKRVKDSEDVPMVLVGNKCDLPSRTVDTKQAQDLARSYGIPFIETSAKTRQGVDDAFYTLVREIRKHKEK
Chain of KRas G12A (P01116 1-169 isoform P01116-2 G12A): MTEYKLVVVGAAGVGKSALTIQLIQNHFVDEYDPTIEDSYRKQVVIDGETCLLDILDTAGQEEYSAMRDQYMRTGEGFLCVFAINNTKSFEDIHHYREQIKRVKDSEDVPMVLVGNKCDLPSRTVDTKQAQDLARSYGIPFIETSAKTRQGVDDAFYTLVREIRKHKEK
Chain of KRas G12C (P01116 1-169 isoform P01116-2 G12C): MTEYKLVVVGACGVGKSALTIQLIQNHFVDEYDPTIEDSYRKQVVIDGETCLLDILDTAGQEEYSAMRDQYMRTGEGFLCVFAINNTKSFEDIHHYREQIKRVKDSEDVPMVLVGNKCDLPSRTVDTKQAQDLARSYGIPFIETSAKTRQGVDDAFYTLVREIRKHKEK
T2 sequence (P01116 1-169 isoform P01116-2 Q61H): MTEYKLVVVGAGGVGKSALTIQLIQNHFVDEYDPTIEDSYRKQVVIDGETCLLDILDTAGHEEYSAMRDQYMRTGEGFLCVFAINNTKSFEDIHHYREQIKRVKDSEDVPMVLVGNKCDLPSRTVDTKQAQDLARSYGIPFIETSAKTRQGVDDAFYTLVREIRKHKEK
Chain of KRas G12D (P01116 1-169 isoform P01116-2 G12D): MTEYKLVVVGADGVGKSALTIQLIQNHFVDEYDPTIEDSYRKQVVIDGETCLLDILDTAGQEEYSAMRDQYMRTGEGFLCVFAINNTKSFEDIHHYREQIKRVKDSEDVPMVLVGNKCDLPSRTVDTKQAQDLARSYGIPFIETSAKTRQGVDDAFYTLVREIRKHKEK
Chain of KRas G12R (P01116 1-169 isoform P01116-2 G12R): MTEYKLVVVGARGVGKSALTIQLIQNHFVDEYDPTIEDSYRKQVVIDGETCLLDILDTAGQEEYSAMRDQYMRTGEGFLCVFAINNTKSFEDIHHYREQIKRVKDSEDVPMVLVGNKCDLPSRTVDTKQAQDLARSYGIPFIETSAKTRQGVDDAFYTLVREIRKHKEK
T1 sequence (P01116 1-169 isoform P01116-2 G13D): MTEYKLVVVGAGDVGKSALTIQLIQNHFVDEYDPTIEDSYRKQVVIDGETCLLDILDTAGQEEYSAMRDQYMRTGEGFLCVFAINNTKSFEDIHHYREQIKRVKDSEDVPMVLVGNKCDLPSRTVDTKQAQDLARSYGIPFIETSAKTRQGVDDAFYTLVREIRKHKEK
Chain of KRas WT (P01116 1-169 isoform P01116-2): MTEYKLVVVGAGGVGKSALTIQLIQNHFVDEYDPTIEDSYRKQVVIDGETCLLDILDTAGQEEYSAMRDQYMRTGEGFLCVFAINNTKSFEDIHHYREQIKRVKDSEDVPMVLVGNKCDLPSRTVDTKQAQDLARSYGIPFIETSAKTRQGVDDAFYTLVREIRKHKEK

Row | SMILES | IC50 (KRas G13D) [nM] | IC50 (KRas Q61H) [nM] | IC50 (KRas G12D) [µM] | IC50 (KRas G12R) [µM] | IC50 (KRas WT) [µM] | IC50 (KRas G12C) [µM] | IC50 (KRas G12A) [µM] | IC50 (KRas G12V) [µM] | IC50 (KRas G12S) [µM]
1 | OCC1COCCN(c2nc(OCC34CCCN3CCC4)nc3c(F)c(-c4cccc5cccc(F)c45)ncc23)C1 (stereo not drawn) [Example 83, (4-(8-fluoro-7-(8-fluoronaphthalen-1-yl)-2-((hexahydro-1H-pyrrolizin-7a-yl)methoxy)pyrido[4,3-d]pyrimidin-4-yl)-1,4-oxazepan-6-yl)methanol] | 1890 | 1990 | 0.392 | 0.992 | 1.2 | 0.509 | 0.735 | 0.498 | 0.703
2 | Fc1c(-c2cccc3cccc(F)c23)ncc2c(NCCCc3cc[nH]n3)nc(OCC34CCCN3CCC4)nc12 [Example 84, N-(3-(1H-pyrazol-3-yl)propyl)-8-fluoro-7-(8-fluoronaphthalen-1-yl)-2-((hexahydro-1H-pyrrolizin-7a-yl)methoxy)pyrido[4,3-d] pyrimidin-4-amine] | 5070 | 5860 | 12.7 | 2.5 | 4.29 | 0.863 | 1.65 | 1.86 | 2.07
3 | OCC12CC(Nc3nc(OCC45CCCN4CCC5)nc4c(F)c(-c5cccc6cccc(F)c56)ncc34)(C1)C2 [Example 85, (3-((8-fluoro-7-(8-fluoronaphthalen-1-yl)-2-((hexahydro-1H-pyrrolizin-7a-yl)methoxy)pyrido[4,3-d]pyrimidin-4-yl)amino)bicyclo[1.1.1]pentan-1-yl)methanol] | 4660 | 10900 | 44 | 2.12 | 4.52 | 2.15 | 2.85 | 3.7 | 4.64
4 | NC(=O)C1CCCN(c2nc(OCC34CCCN3CCC4)nc3c(F)c(-c4cccc5cccc(F)c45)ncc23)C1 (stereo not drawn) [Example 86, 1-(8-fluoro-7-(8-fluoronaphthalen-1-yl)-2-((hexahydro-1H-pyrrolizin-7a-yl)methoxy)pyrido[4,3-d]pyrimidin-4-yl)piperidine-3-carboxamide] | 3000 | 4780 | 6.9 | 8.49 | 2.41 | 3.08 | 2.25 | 3.1 | 2.39
5 | N#CC1CCCN(c2nc(OCC34CCCN3CCC4)nc3c(F)c(-c4cccc5cccc(F)c45)ncc23)CC1 (stereo not drawn) [Example 87, 1-(8-fluoro-7-(8-fluoronaphthalen-1-yl)-2-((hexahydro-1H-pyrrolizin-7a-yl)methoxy)pyrido[4,3-d]pyrimidin-4-yl)azepane-4-carbonitrile] | 5260 | 9500 | 3.36 | 11.9 | 6.09 | 5.94 | 7.12 | 3.66 | 10.8
6 | Cn1cc(CNc2nc(OCC34CCCN3CCC4)nc3c(F)c(-c4cccc5cccc(F)c45)ncc23)ccc1=O [Example 88, 5-(((8-fluoro-7-(8-fluoronaphthalen-1-yl)-2-((hexahydro-1H-pyrrolizin-7a-yl)methoxy)pyrido[4,3-d]pyrimidin-4-yl)amino)methyl)-methylpyridin-2 (1H)-one] | 9310 | 14700 | 30.7 | 4.37 | 7.17 | 2.51 | 1.82 | 2.18 | 4.24
7 | O[C@@H]1C[C@H](O)CN(c2nc(OCC34CCCN3CCC4)nc3c(F)c(-c4cccc5cccc(F)c45)ncc23)C1 [Example 89, (3S,5R)-1-(8-fluoro-7-(8-fluoronaphthalen-1-yl)-2-((hexahydro-l H-pyrrolizin-7a-yl)methoxy)pyrido[4,3-d]pyrimidin-4-yl)piperidine-3,5-diol] | 1810 | 3270 | 2.28 | 2.6 | 1.4 | 1.06 | 1.25 | 1.02 | 1.55
8 | OC12CC(Nc3nc(OCC45CCCN4CCC5)nc4c(F)c(-c5cccc6cccc(F)c56)ncc34)(C1)C2 [Example 90, 3-((8-fluoro-7-(8-fluoronaphthalen-1-yl)-2-((hexahydro-1H-pyrrolizin-7a-yl)methoxy)pyrido[4,3-d]pyrimidin-4-yl)amino)bicyclo[1.1.1]pentan-1-ol] | 8210 | 19600 | 40.2 | 4.19 | 7.24 | 4.18 | 5.14 | 3.47 | 6.48
9 | O=C(O)[C@H]1C[C@H](Nc2nc(OCC34CCCN3CCC4)nc3c(F)c(-c4cccc5cccc(F)c45)ncc23)C1 [Example 91, trans-3-((8-fluoro-7-(8-fluoronaphthalen-1-yl)-2-((tetrahydro-1H-pyrrolizin-7a(5H)-yl)methoxy)pyrido[4,3-d]pyrimidin-4-yl)amino)cyclobutane-1-carboxylic acid] | 36600 | 31400 | ≥ 100 | 2.2 | 14.1 | 11.3 | 12.7 | 12.7 | 17.9
10 | Fc1c(-c2cccc3cccc(F)c23)ncc2c(NCc3ncc4cc[nH]c4n3)nc(OCC34CCCN3CCC4)nc12 [Example 92, N-((7H-pyrrolo[2,3-d]pyrimidin-2-yl)methyl)-8-fluoro-7-(8-fluoronaphthalen-1-yl)-2-((hexahydro-1H-pyrrolizin-7a-yl)methoxy)pyrido[4,3-d]pyrimidin-4-amine] | 8560 | 17300 | 20.8 | 1.98 | 8.8 | 3.41 | 6.55 | 1.72 | 6.87
11 | Fc1c(-c2cccc3cccc(F)c23)ncc2c(NCc3cn[nH]c3)nc(OCC34CCCN3CCC4)nc12 [Example 93, N-((1H-pyrazol-4-yl)methyl)-8-fluoro-7-(8-fluoronaphthalen-1-yl)-2-((hexahydro-1H-pyrrolizin-7a-yl)methoxy)pyrido[4,3-d]pyrimidin-4-amine] | 20400 | 21800 | 83.6 | 3.39 | 14.9 | 4.05 | 7.84 | 2.93 | 10.2
12 | Fc1c(-c2cccc3cccc(F)c23)ncc2c(NCc3c[nH]c4ncccc34)nc(OCC34CCCN3CCC4)nc12 [Example 94, N-((1H-pyrrolo[2,3-b]pyridin-3-yl)methyl)-8-fluoro-7-(8-fluoronaphthalen-1-yl)-2-((tetrahydro-1H-pyrrolizin-7a(5H)-yl)methoxy)pyrido[4,3-d]pyrimidin-4-amine] | 1250 | 1850 | 4.51 | 0.115 | 1.39 | 0.183 | 0.24 | 0.146 | 0.368
13 | O=S1(=O)CC(Nc2nc(OCC34CCCN3CCC4)nc3c(F)c(-c4cccc5cccc(F)c45)ncc23)C1 [Example 95, 3-((8-fluoro-7-(8-fluoronaphthalen-1-yl)-2-((hexahydro-1H-pyrrolizin-7a-yl)methoxy)pyrido[4,3-d]pyrimidin-4-yl)amino)thietane1,1-dioxide] | 7180 | 10300 | 55 | 3.06 | 3.99 | 3.62 | 5 | 4.99 | 4.12
